Assay results published in patent US20260297679A1, “ASSAYS FOR MONITORING INHIBITION OF RNA HELICASE DHX9” (ACCENT THERAPEUTICS, INC., priority 2023, published 2026).

What was measured:
[1] = tested on: frozen PBMCs; experiment: circBRIP1 level in frozen human PBMCs; type: cell-based; conditions: 10 μM, 24 hours, frozen PBMCs from three donors, vs vehicle; FIG. 8A
Experimental: As proof of concept, circBRIP1 levels were examined in peripheral blood mononuclear cells (PMBCs) using frozen PBMCs from donors after treatment with a DHX9 inhibitor.
Frozen PBMCs were thawed in a 37° C. water bath, washed, and reconstituted in media. The same number of cells were added to each well of 12-well plates and let rest for 2 hours before being subjected to testing conditions. Compound 1 was dissolved in DMSO at 10 mM as a stock solution, and diluted to a desired concentration. Frozen PBMCs from three donors or LS411N cells (positive control) were treated with 10 μM of Compound 1 or control vehicle for 24 hours. The circBRIP1 level was determined using methods essentially as described above.

[2] = tested on: LS411N tumors; experiment: Intra-tumoral human circBRIP1 analysis, LS411N xenograft; type: in vivo, human xenograft in female BALB/c nude mice; conditions: 30, 100, 200 and 300 mg/kg BID oral, 21 days, 12 hours post last dose; FIG. 4A
Experimental: This study was conducted to evaluate pharmacodynamics (PD) and pharmacokinetics (PK) of intra-tumoral circular BRIP1 with efficacy of a DHX9 inhibitor (Compound 1, as shown in Table 1).
In vivo Efficacy Study: Experiments were performed in female BALB/c nude mice (GenPharmatech Co.). Animals were allowed to acclimate for 7 days before the study. The general health of the animals were evaluated by a veterinarian, and complete health checks were performed prior to the study. […] Animals were housed in polycarbonate cage which is the size of 300×180×150 mm^3 and in an environmentally monitored, well-ventilated room maintained at a temperature of (23±3° C.) and a relative humidity of 40% 70%. […]
The LS411N (ATCC; CRL-2159) tumor cell lines were maintained in vitro as monolayer in RPMI 1640 medium supplemented with 10% heat inactivated FBS, at 37° C. in an atmosphere of 5% CO2 in air. The tumor cells were sub-cultured, not exceeding 4-5 passages, and cells growing in an exponential growth phase were harvested and counted for tumor inoculation. […]
Data analysis was performed by using the QuantStudio Thermocycler software to determine threshold Ct values. ΔCt for circBRIP1 or linBRIP1 is calculated by normalizing the target gene Ct to the GAPDH housekeeping gene Ct for each sample. The inhibition activity is calculated by the following formula, whereas: […]

[3] = tested on: breast, ovarian, and lung cell lines; experiment: circBRIP1 levels in breast, ovarian, and lung cell lines; type: cell-based
Experimental: Cells were plated at pre-determined cell densities in 384-well cell culture plates and incubated overnight in 37° C. at 5% CO2. […] Using TaqMan Multiplex Mastermix and thermal cycle conditions for the Quant Studio Thermocycler, qPCR was carried out as described above to quantify the level of circBRIP1.
Data analysis was performed by using the QuantStudio Thermocycler software to determine threshold Ct values. ΔCt for circBRIP1 is calculated by normalizing the target gene Ct to the GAPDH housekeeping gene Ct for each sample.
The inhibition activity (% Vehicle) is calculated by the following formulas, whereas: […]
An EC50 was then calculated using a 4-parameter logistic nonlinear regression model in Scigilian Analyze or GraphPad Prism, floating both the top and bottom parameters. […]

Cc1cccnc1-c1csc(C(=O)Nc2cc(Cl)cc(NS(C)(=O)=O)c2)c1 [Compound 1, N-(3-chloro-5-methanesulfonamidophenyl)-4-(3-methylpyridin-2-yl)thiophene-2-carboxamide]
circBRIP1 level in PBMCs [1]: significantly elevated
intra-tumoral circBRIP1 induction [2]: Dose-dependent intra-tumoral circBRIP1 induction was observed
circBRIP1 levels [3]: upregulated in breast, ovarian, and lung cell lines
